Test results reported in the NIST ThermoML archive (doi:10.1021/je7001013).

Experiments:
[1] = refractive index (Na D-line) (dimensionless); details: 101.33 kPa, Liquid
[2] = xn = mol fraction of the nth substance listed
[3] = refractive index (Na D-line) (dimensionless); xn = mol fraction of the nth substance listed; details: 101 kPa, Liquid

C[S+](C)[O-] [dimethyl sulfoxide]
Details	surface tension liquid-gas [mN/m]
298.15 K	41.7
303.15 K	41
308.15 K	40.3
313.15 K	39.7
318.15 K	39.1
323.15 K	38.5
328.15 K	37.9

[1]
Details	refractive index
298.15 K	1.4765
303.15 K	1.474
308.15 K	1.472

CCCS(=O)CCC [dipropyl sulfoxide]
Details	surface tension liquid-gas [mN/m]
298.15 K	32.6
303.15 K	32
308.15 K	31.5
313.15 K	31
318.15 K	30.5
323.15 K	29.9
328.15 K	29.4

[1]
Details	refractive index
298.15 K	1.4595
303.15 K	1.458
308.15 K	1.456

CC[S+]([O-])CC [diethyl sulfoxide]
Details	surface tension liquid-gas [mN/m]
298.15 K	34.6
303.15 K	34.1
308.15 K	33.7
313.15 K	33.2
318.15 K	32.7
323.15 K	32.4
328.15 K	32

[1]
Details	refractive index
298.15 K	1.468
303.15 K	1.466
308.15 K	1.464

CC(C)S(=O)C(C)C [2,2'-sulfinylbispropane] + O
Details	refractive index, [3]	surface tension liquid-gas, [2] [mN/m]
298.15 K, x1 = 0.0087	1.3435	52.5
298.15 K, x1 = 0.0197	1.353	48.8
298.15 K, x1 = 0.0505	1.38	–
298.15 K, x1 = 0.0987	1.407	–
298.15 K, x1 = 0.4035	1.453	35.9
298.15 K, x1 = 0.6002	1.46	33.9
298.15 K, x1 = 0.7756	1.4625	32.6
298.15 K, x1 = 0.8899	1.4635	32.2
303.15 K, x1 = 0.0087	1.343	52.4
303.15 K, x1 = 0.0197	1.352	48.1
303.15 K, x1 = 0.0505	1.3785	42.9
303.15 K, x1 = 0.0987	1.406	–
303.15 K, x1 = 0.4035	1.451	34.6
303.15 K, x1 = 0.6002	1.4575	33.3
303.15 K, x1 = 0.7756	1.461	32.1
303.15 K, x1 = 0.8899	1.4625	31.7
308.15 K, x1 = 0.0087	1.342	51.5
308.15 K, x1 = 0.0197	1.3515	47.3
308.15 K, x1 = 0.0505	1.3775	41.8
308.15 K, x1 = 0.0987	1.404	35.1
308.15 K, x1 = 0.4035	1.448	34.1
308.15 K, x1 = 0.6002	1.456	32.7
308.15 K, x1 = 0.7756	1.459	31.5
308.15 K, x1 = 0.8899	1.4605	31.1
313.15 K, x1 = 0.0087	–	50.6
313.15 K, x1 = 0.0197	–	46.6
313.15 K, x1 = 0.0505	–	41.2
313.15 K, x1 = 0.0987	–	36
313.15 K, x1 = 0.4035	–	33.4
313.15 K, x1 = 0.6002	–	32.1
313.15 K, x1 = 0.7756	–	30.9
313.15 K, x1 = 0.8899	–	30.6
318.15 K, x1 = 0.0087	–	49.8
318.15 K, x1 = 0.0197	–	45.8
318.15 K, x1 = 0.0505	–	40.6
318.15 K, x1 = 0.0987	–	37
318.15 K, x1 = 0.4035	–	32.8
318.15 K, x1 = 0.6002	–	31.5
318.15 K, x1 = 0.7756	–	30.3
318.15 K, x1 = 0.8899	–	30
323.15 K, x1 = 0.0087	–	48.9
323.15 K, x1 = 0.0197	–	45
323.15 K, x1 = 0.0505	–	39.9
323.15 K, x1 = 0.0987	–	36.7
323.15 K, x1 = 0.4035	–	31.8
323.15 K, x1 = 0.6002	–	30.4
323.15 K, x1 = 0.7756	–	29.8
323.15 K, x1 = 0.8899	–	29.5
328.15 K, x1 = 0.0087	–	48
328.15 K, x1 = 0.0197	–	43.7
328.15 K, x1 = 0.0505	–	39.7
328.15 K, x1 = 0.0987	–	36.4
328.15 K, x1 = 0.4035	–	31
328.15 K, x1 = 0.6002	–	29.8
328.15 K, x1 = 0.7756	–	29.3
328.15 K, x1 = 0.8899	–	28.9
